From patent US11344588B2, “Lactobacillus plantarum CJLP17 having antiviral and immunomodulatory efficacies and composition comprising the same” (CJ CHEILJEDANG CORPORATION, priority 2018, dated 2022)

Tested on: CJLP17 strain
Experiment: Antibiotic susceptibility test with antibiotic discs
Type: cell-based, Lactobacillus plantarum
Settings: antibiotic disc on CJLP17 lawn, Mueller Hinton II medium, 37° C., 24 hours
Procedure: The CJLP17 strain was inoculated into a liquid MRS medium and subjected to a static culture at 37° C. for 24 hours. The thus-cultured bacteria were soaked in sterilized cotton swabs and smeared on a solid Mueller Hinton II medium (Difco), and then antibiotic discs were placed on the medium and incubated at 37° C. for 24 hours. Ampicillin, clindamycin, gentamicin, kanamycin, erythromycin, ampicillin/sulbactam, chloramphenicol, and streptomycin discs (Oxoid, UK) were used as antibiotic discs for the antibiotic test.

| Molecule | Radius of Growth Inhibition Area Centered Around Antibiotics |
| --- | --- |
| Gentamicin [CN120 (Gentamicin)] | 5 mm |
| CC1(C)S[C@@H]2[C@H](NC(=O)[C@H](N)c3ccccc3)C(=O)N2[C@H]1C(=O)O [Amp10 (Ampicillin), Ampicillin] | 7.5 mm |
| [H]/N=C(/N)N[C@H]1[C@H](O)[C@@H](O)[C@H](O[C@@H]2O[C@@H](C)[C@](O)(C=O)[C@H]2O[C@@H]2O[C@@H](CO)[C@H](O)[C@@H](O)[C@@H]2NC)[C@@H](N/C(N)=N\[H])[C@@H]1O [DA2 (Streptomycin), Streptomycin] | 4.5 mm |
| CCC[C@@H]1C[C@@H](C(=O)N[C@@H]([C@H]2O[C@H](SC)[C@H](O)[C@@H](O)[C@H]2O)[C@H](C)Cl)N(C)C1 [C30 (Clindamycin), Clindamycin] | 7 mm |
| O=C(N[C@H](CO)[C@H](O)c1ccc([N+](=O)[O-])cc1)C(Cl)Cl [S10 (Chloramphenicol), Chloramphenicol] | 3.5 mm |
| NC[C@H]1O[C@H](O[C@H]2[C@H](O)[C@@H](O[C@H]3O[C@H](CO)[C@@H](O)[C@H](N)[C@H]3O)[C@H](N)C[C@@H]2N)[C@H](O)[C@@H](O)[C@@H]1O [K30 (Kanamycin), Kanamycin] | 1.5 mm |
| CC[C@H]1OC(=O)[C@H](C)[C@@H](O[C@H]2C[C@@](C)(OC)[C@@H](O)[C@H](C)O2)[C@H](C)[C@@H](O[C@@H]2O[C@H](C)C[C@H](N(C)C)[C@H]2O)[C@](C)(O)C[C@@H](C)C(=O)[C@H](C)[C@@H](O)[C@]1(C)O [E15 (Erythromycin), Erythromycin] | 12 mm |
| Ampicillin/Sulbactam [SAM20 (Ampicillin/Sulbactam)] | 7 mm |
